Measurements: patent US8299028B2, “Chimeric peptide antagonist for GPCR135 or GPCR142” (Janssen Pharmaceutica NV, priority 2007, dated 2012)

Experiments:
satiated Wistar rats = test: Food intake in satiated Wistar rats after i.c.v. administration; type: in vivo, rat; conditions: 10 μg i.c.v.
Procedure: FIG. 6 illustrates food consumption in satiated Wistar rats during the first hour of the test session (i.e., Day 2) following i.c.v. administration of vehicle (5 μL)+vehicle (5 μL), vehicle (5 μl)+R3/I5 (10 μg), R3(BΔ23-27)R/I5 (10 μg)+vehicle (5 μl), and R3(BΔ23-27)R/I5 (10 μg)+R3/I5 (10 μg) (mean±SEM; n=5-6 per group) (A).
Experimentally naïve, male Wistar rats (Charles River, Wilmington, Mass.) weighing 200-225 grams at the time of arrival were used. The animals were initially housed at two per cage and given a one-week acclimation period to the vivarium prior to i.c.v. cannula implantation. All animals had free access to food and water throughout the experiment and were not food deprived prior to behavioral testing. The animal colony was maintained at 22±2° C. during a 12-hr light/12-hr dark illumination cycle with lights on from 0600 to 1800 hours. […]
A predetermined amount of standard rat chow (Formulab Diet No. 5008, which contained 23.0% protein and 6.5% fat) was placed in the food hopper at the start of the 4 hr session(s). The amount of food remaining in the food hopper was determined by subtracting the weight of the food at 1 and 4 hrs from the initial food weight (i.e., weight of the food at the start of the session). Food crumbs detected on the floor of the apparatus were included in the determination of food weights. […]

[1] = target: T1, endogenous GPCR135 from rat brain slices (Rattus norvegicus, UniProt Q5Y987); test: Autoradiography, displacement of 125I-R3/I5 binding on rat brain slices; conditions: at 10 nM
T1 construct: using endogenous GPCR135 from rat brain slices in autoradiographic studies; from tissue; host or cells: rat brain slices
T1 sequence (Q5Y987 1-469): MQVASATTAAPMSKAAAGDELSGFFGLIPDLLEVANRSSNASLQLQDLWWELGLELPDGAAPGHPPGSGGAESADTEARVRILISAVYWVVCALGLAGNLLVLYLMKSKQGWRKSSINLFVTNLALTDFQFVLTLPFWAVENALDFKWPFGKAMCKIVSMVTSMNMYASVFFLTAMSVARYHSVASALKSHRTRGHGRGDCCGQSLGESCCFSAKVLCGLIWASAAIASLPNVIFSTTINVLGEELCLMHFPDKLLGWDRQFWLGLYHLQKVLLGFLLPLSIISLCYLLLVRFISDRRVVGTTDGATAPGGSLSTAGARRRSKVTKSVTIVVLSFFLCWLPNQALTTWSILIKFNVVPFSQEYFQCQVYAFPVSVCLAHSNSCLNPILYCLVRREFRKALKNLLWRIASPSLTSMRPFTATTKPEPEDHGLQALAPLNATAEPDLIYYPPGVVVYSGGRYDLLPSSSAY
Procedure: FIG. 5 provides autoradiograms of ^125I-R3/I5 binding sites in the rat brain (A) with competition by relaxin-3 (10 nM, B) or R3(BΔ23-27)R/I5 (10 nM, C), and a dose-response curve for R3(BΔ23-27)R/I5 as the competitor in the binding assay on rat brain slices (D). A dose-response curve for human relaxin-3 is included for comparison (D). Nonspecific binding was determined using 1 μM unlabeled relaxin-3.
R3(BΔ23-27)R/I5 peptide was evaluated pharmacologically using endogenous GPCR135 from rat brain slices in autoradiographic studies as described by Sutton et al., 2004. Briefly, ^125I-R3/I5 was applied in a binding buffer to rat brain slices. Unlabeled human relaxin-3 or R3(BΔ23-27)R/I5 was used at various concentrations as competitors to displace GPCR135 binding of ^125I-R3/I5.

displacement of 125I-R3/I5 binding sites in rat brain sections [1]	Substance	total food intake over 4 hours (satiated Wistar rats; 4 hours)	food intake, first hour (satiated Wistar rats; first hour)
–	R3/I5: Chimeric peptide of relaxin-3 B-chain (SEQ ID NO:12) and INSL5 A-chain (SEQ ID NO:19); selective GPCR135 agonist (beta RAAPYGVRLCGREFIRAVIFTCGGSRW; alpha EDLQTLCCTDGCSMTDLSALC; INSL5 A-chain; listed as Homo Sapiens)	food intake was stimulated	food intake was stimulated
Full displacement	Relaxin-3: Wild type human relaxin-3, B-chain SEQ ID NO:12, A-chain SEQ ID NO:13; positive control	–	–
